Measured values reported in patent publication US9771334B2, “Triketone compound and preparation method and use thereof” (SHANDONG CYNDA CHEMICAL CO., LTD., priority 2013, dated 2017).

Key:
Test in all cases: Herbicidal activity, pot culture method (primary and secondary screening test)
Type in all cases: in vivo
Conditions in all cases: primary screening, pot culture, 150 g/ha, sprayed at 3-leaf stage, result 15 days later
setaria viridis = tested on: setaria viridis
Source text: (§1) This test example is for describing the herbicidal activity inhibition ratio (%) (the dose is 150 g/ha) of the compound with a structure shown in Formula (I). Primary screening test (pot culture method): The test targets are abutilon theophrasti, digitaria sanguinalis, amaranthus retroflexus, echinochloa crusgalli, eclipta prostrata and setaria viridis. Take flowerpots with an inner diameter of 6 cm, put composite soil (vegetable garden soil:seedling matrix=1:2, v/v) into them till 3⁄4 of flowerpot height, directly sow the above six weed targets (budding rate>85%), cover them with 0.2 cm thick soil, and keep them for future use when the weeds grow to 3-leaf stage. Each compound is dissolved in N,N-dimethylformamide at a dose of 150 g/ha and diluted with distilled water into a 0.2 g/L solution. The solution is sprayed through an automatic spray tower. After the solution on weed leaves is aired dry, the flowerpots are moved into a greenhouse for cultivation. The result is investigated 15 days later. By the same method adopted in primary screening test, a secondary screening test is done on some typical compounds, such as: 5, 6, 20, 21, 23, 34, 47, 65, 66, 70 and 91 at a reduced dose, and the test result is compared with mesotrione which is commercially available and has a good herbicidal effect. The test method is same as that adopted in primary screening test. Mesotrione is bought from Hubei […] Chemical Co., Ltd.

digitaria sanguinalis = tested on: digitaria sanguinalis
Source text: as §1

amaranthus retroflexus = tested on: amaranthus retroflexus
Source text: as §1

eclipta prostrata = tested on: eclipta prostrata
Source text: as §1

echinochloa crusgalli = tested on: echinochloa crusgalli
Source text: as §1

abutilon theophrasti = tested on: abutilon theophrasti
Source text: as §1

SMILES: Cn1c(=O)n(-c2ccc(OC(F)(F)F)cc2)c(=O)c2cc(C(=O)C3=C(O)CCCC3=O)ccc21 [Compound 50]
- herbicidal activity inhibition ratio (%), Setaria viridis (setaria viridis): 50%
- herbicidal activity inhibition ratio (%), Digitaria sanguinalis (digitaria sanguinalis): 60%
- herbicidal activity inhibition ratio (%), Amaranthus retroflexus (amaranthus retroflexus): 95%
- herbicidal activity inhibition ratio (%), Eclipta prostrata (eclipta prostrata): 80%
- herbicidal activity inhibition ratio (%), Echinochloa crusgalli (echinochloa crusgalli): 78%
- herbicidal activity inhibition ratio (%), Abutilon theophrasti (abutilon theophrasti): 50%

SMILES: Cn1c(=O)n(-c2cccc(C(F)(F)F)c2)c(=O)c2cc(C(=O)C3=C(O)CC(C)(C)CC3=O)ccc21 [Compound 51]
- herbicidal activity inhibition ratio (%), Setaria viridis (setaria viridis): 40%
- herbicidal activity inhibition ratio (%), Digitaria sanguinalis (digitaria sanguinalis): 83%
- herbicidal activity inhibition ratio (%), Amaranthus retroflexus (amaranthus retroflexus): 90%
- herbicidal activity inhibition ratio (%), Eclipta prostrata (eclipta prostrata): 80%
- herbicidal activity inhibition ratio (%), Echinochloa crusgalli (echinochloa crusgalli): 50%
- herbicidal activity inhibition ratio (%), Abutilon theophrasti (abutilon theophrasti): 93%

SMILES: Cn1c(=O)n(-c2cccc(C(F)(F)F)c2)c(=O)c2cc(C(=O)C3=C(O)CCCC3=O)ccc21 [Compound 52]
- herbicidal activity inhibition ratio (%), Setaria viridis (setaria viridis): 80%
- herbicidal activity inhibition ratio (%), Digitaria sanguinalis (digitaria sanguinalis): 50%
- herbicidal activity inhibition ratio (%), Amaranthus retroflexus (amaranthus retroflexus): 98%
- herbicidal activity inhibition ratio (%), Eclipta prostrata (eclipta prostrata): 75%
- herbicidal activity inhibition ratio (%), Echinochloa crusgalli (echinochloa crusgalli): 85%
- herbicidal activity inhibition ratio (%), Abutilon theophrasti (abutilon theophrasti): 55%

SMILES: Cn1c(=O)n(-c2ccc([N+](=O)[O-])cc2)c(=O)c2cc(C(=O)C3=C(O)CC(C)(C)CC3=O)ccc21 [Compound 53]
- herbicidal activity inhibition ratio (%), Setaria viridis (setaria viridis): 80%
- herbicidal activity inhibition ratio (%), Digitaria sanguinalis (digitaria sanguinalis): 25%
- herbicidal activity inhibition ratio (%), Amaranthus retroflexus (amaranthus retroflexus): 80%
- herbicidal activity inhibition ratio (%), Eclipta prostrata (eclipta prostrata): 80%
- herbicidal activity inhibition ratio (%), Echinochloa crusgalli (echinochloa crusgalli): 0%
- herbicidal activity inhibition ratio (%), Abutilon theophrasti (abutilon theophrasti): 100%

SMILES: Cc1cccc(C)c1-n1c(=O)c2cc(C(=O)C3=C(O)C(C)(C)CCC3=O)ccc2n(C)c1=O [Compound 54]
- herbicidal activity inhibition ratio (%), Setaria viridis (setaria viridis): 45%
- herbicidal activity inhibition ratio (%), Digitaria sanguinalis (digitaria sanguinalis): 60%
- herbicidal activity inhibition ratio (%), Amaranthus retroflexus (amaranthus retroflexus): 98%
- herbicidal activity inhibition ratio (%), Eclipta prostrata (eclipta prostrata): 80%
- herbicidal activity inhibition ratio (%), Echinochloa crusgalli (echinochloa crusgalli): 95%
- herbicidal activity inhibition ratio (%), Abutilon theophrasti (abutilon theophrasti): 100%

SMILES: COc1cccc(-n2c(=O)c3cc(C(=O)C4=C(O)CCCC4=O)ccc3n(C)c2=O)c1 [Compound 55]
- herbicidal activity inhibition ratio (%), Setaria viridis (setaria viridis): 25%
- herbicidal activity inhibition ratio (%), Digitaria sanguinalis (digitaria sanguinalis): 60%
- herbicidal activity inhibition ratio (%), Amaranthus retroflexus (amaranthus retroflexus): 95%
- herbicidal activity inhibition ratio (%), Eclipta prostrata (eclipta prostrata): 68%
- herbicidal activity inhibition ratio (%), Echinochloa crusgalli (echinochloa crusgalli): 93%
- herbicidal activity inhibition ratio (%), Abutilon theophrasti (abutilon theophrasti): 100%

SMILES: COc1cccc(-n2c(=O)c3cc(C(=O)C4=C(O)CC(C)(C)CC4=O)ccc3n(C)c2=O)c1 [Compound 56]
- herbicidal activity inhibition ratio (%), Setaria viridis (setaria viridis): 60%
- herbicidal activity inhibition ratio (%), Digitaria sanguinalis (digitaria sanguinalis): 55%
- herbicidal activity inhibition ratio (%), Amaranthus retroflexus (amaranthus retroflexus): 80%
- herbicidal activity inhibition ratio (%), Eclipta prostrata (eclipta prostrata): 75%
- herbicidal activity inhibition ratio (%), Echinochloa crusgalli (echinochloa crusgalli): 60%
- herbicidal activity inhibition ratio (%), Abutilon theophrasti (abutilon theophrasti): 55%

SMILES: COc1ccc(-n2c(=O)c3cc(C(=O)C4=C(O)CCCC4=O)ccc3n(C)c2=O)cc1 [Compound 57]
- herbicidal activity inhibition ratio (%), Setaria viridis (setaria viridis): 50%
- herbicidal activity inhibition ratio (%), Digitaria sanguinalis (digitaria sanguinalis): 75%
- herbicidal activity inhibition ratio (%), Amaranthus retroflexus (amaranthus retroflexus): 95%
- herbicidal activity inhibition ratio (%), Eclipta prostrata (eclipta prostrata): 80%
- herbicidal activity inhibition ratio (%), Echinochloa crusgalli (echinochloa crusgalli): 85%
- herbicidal activity inhibition ratio (%), Abutilon theophrasti (abutilon theophrasti): 60%

SMILES: COc1ccc(-n2c(=O)c3cc(C(=O)C4=C(O)CC(C)(C)CC4=O)ccc3n(C)c2=O)cc1 [Compound 58]
- herbicidal activity inhibition ratio (%), Setaria viridis (setaria viridis): 60%
- herbicidal activity inhibition ratio (%), Digitaria sanguinalis (digitaria sanguinalis): 88%
- herbicidal activity inhibition ratio (%), Amaranthus retroflexus (amaranthus retroflexus): 90%
- herbicidal activity inhibition ratio (%), Eclipta prostrata (eclipta prostrata): 68%
- herbicidal activity inhibition ratio (%), Echinochloa crusgalli (echinochloa crusgalli): 80%
- herbicidal activity inhibition ratio (%), Abutilon theophrasti (abutilon theophrasti): 100%

SMILES: Cc1ccccc1-n1c(=O)[nH]c2ccc(C(=O)C3=C(O)CC(C)(C)CC3=O)cc2c1=O [Compound 59]
- herbicidal activity inhibition ratio (%), Setaria viridis (setaria viridis): 10%
- herbicidal activity inhibition ratio (%), Digitaria sanguinalis (digitaria sanguinalis): 0%
- herbicidal activity inhibition ratio (%), Amaranthus retroflexus (amaranthus retroflexus): 30%
- herbicidal activity inhibition ratio (%), Eclipta prostrata (eclipta prostrata): 25%
- herbicidal activity inhibition ratio (%), Echinochloa crusgalli (echinochloa crusgalli): 0%
- herbicidal activity inhibition ratio (%), Abutilon theophrasti (abutilon theophrasti): 0%

SMILES: Cn1c(=O)n(-c2cc(C(F)(F)F)ccc2Cl)c(=O)c2cc(C(=O)C3=C(O)CCCC3=O)ccc21 [Compound 60]
- herbicidal activity inhibition ratio (%), Setaria viridis (setaria viridis): 80%
- herbicidal activity inhibition ratio (%), Digitaria sanguinalis (digitaria sanguinalis): 40%
- herbicidal activity inhibition ratio (%), Amaranthus retroflexus (amaranthus retroflexus): 70%
- herbicidal activity inhibition ratio (%), Eclipta prostrata (eclipta prostrata): 0%
- herbicidal activity inhibition ratio (%), Echinochloa crusgalli (echinochloa crusgalli): 65%
- herbicidal activity inhibition ratio (%), Abutilon theophrasti (abutilon theophrasti): 100%

SMILES: Cn1c(=O)n(-c2cc(C(F)(F)F)ccc2Cl)c(=O)c2cc(C(=O)C3=C(O)CC(C)(C)CC3=O)ccc21 [Compound 61]
- herbicidal activity inhibition ratio (%), Setaria viridis (setaria viridis): 10%
- herbicidal activity inhibition ratio (%), Digitaria sanguinalis (digitaria sanguinalis): 25%
- herbicidal activity inhibition ratio (%), Amaranthus retroflexus (amaranthus retroflexus): 0%
- herbicidal activity inhibition ratio (%), Eclipta prostrata (eclipta prostrata): 20%
- herbicidal activity inhibition ratio (%), Echinochloa crusgalli (echinochloa crusgalli): 0%
- herbicidal activity inhibition ratio (%), Abutilon theophrasti (abutilon theophrasti): 65%

SMILES: Cn1c(=O)n(-c2ccc(Cl)cc2Cl)c(=O)c2cc(C(=O)C3=C(O)CCCC3=O)ccc21 [Compound 62]
- herbicidal activity inhibition ratio (%), Setaria viridis (setaria viridis): 93%
- herbicidal activity inhibition ratio (%), Digitaria sanguinalis (digitaria sanguinalis): 65%
- herbicidal activity inhibition ratio (%), Amaranthus retroflexus (amaranthus retroflexus): 88%
- herbicidal activity inhibition ratio (%), Eclipta prostrata (eclipta prostrata): 20%
- herbicidal activity inhibition ratio (%), Echinochloa crusgalli (echinochloa crusgalli): 83%
- herbicidal activity inhibition ratio (%), Abutilon theophrasti (abutilon theophrasti): 100%

SMILES: Cn1c(=O)n(-c2ccc(Cl)cc2Cl)c(=O)c2cc(C(=O)C3=C(O)CC(C)(C)CC3=O)ccc21 [Compound 63]
- herbicidal activity inhibition ratio (%), Setaria viridis (setaria viridis): 30%
- herbicidal activity inhibition ratio (%), Digitaria sanguinalis (digitaria sanguinalis): 20%
- herbicidal activity inhibition ratio (%), Amaranthus retroflexus (amaranthus retroflexus): 30%
- herbicidal activity inhibition ratio (%), Eclipta prostrata (eclipta prostrata): 50%
- herbicidal activity inhibition ratio (%), Echinochloa crusgalli (echinochloa crusgalli): 25%
- herbicidal activity inhibition ratio (%), Abutilon theophrasti (abutilon theophrasti): 100%

SMILES: CC1CC(=O)C(C(=O)c2ccc3c(c2)c(=O)n(-c2ccc(Cl)cc2Cl)c(=O)n3C)=C(O)C1 (stereo not drawn) [Compound 64]
- herbicidal activity inhibition ratio (%), Setaria viridis (setaria viridis): 93%
- herbicidal activity inhibition ratio (%), Digitaria sanguinalis (digitaria sanguinalis): 60%
- herbicidal activity inhibition ratio (%), Amaranthus retroflexus (amaranthus retroflexus): 80%
- herbicidal activity inhibition ratio (%), Eclipta prostrata (eclipta prostrata): 0%
- herbicidal activity inhibition ratio (%), Echinochloa crusgalli (echinochloa crusgalli): 90%
- herbicidal activity inhibition ratio (%), Abutilon theophrasti (abutilon theophrasti): 95%

SMILES: Cc1cc(C)c(-n2c(=O)c3cc(C(=O)C4=C(O)CCCC4=O)ccc3n(C)c2=O)c(C)c1 [Compound 67]
- herbicidal activity inhibition ratio (%), Setaria viridis (setaria viridis): 80%
- herbicidal activity inhibition ratio (%), Digitaria sanguinalis (digitaria sanguinalis): 80%
- herbicidal activity inhibition ratio (%), Amaranthus retroflexus (amaranthus retroflexus): 80%
- herbicidal activity inhibition ratio (%), Eclipta prostrata (eclipta prostrata): 0%
- herbicidal activity inhibition ratio (%), Echinochloa crusgalli (echinochloa crusgalli): 83%
- herbicidal activity inhibition ratio (%), Abutilon theophrasti (abutilon theophrasti): 95%

SMILES: Cc1ccccc1-n1c(=O)[nH]c2ccc(C(=O)C3=C(O)CCCC3=O)cc2c1=O [Compound 68]
- herbicidal activity inhibition ratio (%), Setaria viridis (setaria viridis): 10%
- herbicidal activity inhibition ratio (%), Digitaria sanguinalis (digitaria sanguinalis): 0%
- herbicidal activity inhibition ratio (%), Amaranthus retroflexus (amaranthus retroflexus): 0%
- herbicidal activity inhibition ratio (%), Eclipta prostrata (eclipta prostrata): 0%
- herbicidal activity inhibition ratio (%), Echinochloa crusgalli (echinochloa crusgalli): 0%
- herbicidal activity inhibition ratio (%), Abutilon theophrasti (abutilon theophrasti): 15%

SMILES: CCn1c(=O)n(-c2ccccc2C)c(=O)c2cc(C(=O)C3=C(O)CC(C)(C)CC3=O)ccc21 [Compound 69]
- herbicidal activity inhibition ratio (%), Setaria viridis (setaria viridis): 85%
- herbicidal activity inhibition ratio (%), Digitaria sanguinalis (digitaria sanguinalis): 30%
- herbicidal activity inhibition ratio (%), Amaranthus retroflexus (amaranthus retroflexus): 95%
- herbicidal activity inhibition ratio (%), Eclipta prostrata (eclipta prostrata): 88%
- herbicidal activity inhibition ratio (%), Echinochloa crusgalli (echinochloa crusgalli): 90%
- herbicidal activity inhibition ratio (%), Abutilon theophrasti (abutilon theophrasti): 100%

SMILES: CCCn1c(=O)n(-c2ccccc2C)c(=O)c2cc(C(=O)C3=C(O)CCCC3=O)ccc21 [Compound 71]
- herbicidal activity inhibition ratio (%), Setaria viridis (setaria viridis): 98%
- herbicidal activity inhibition ratio (%), Digitaria sanguinalis (digitaria sanguinalis): 25%
- herbicidal activity inhibition ratio (%), Amaranthus retroflexus (amaranthus retroflexus): 85%
- herbicidal activity inhibition ratio (%), Eclipta prostrata (eclipta prostrata): 98%
- herbicidal activity inhibition ratio (%), Echinochloa crusgalli (echinochloa crusgalli): 80%
- herbicidal activity inhibition ratio (%), Abutilon theophrasti (abutilon theophrasti): 95%

SMILES: CCCn1c(=O)n(-c2ccccc2C)c(=O)c2cc(C(=O)C3=C(O)CC(C)(C)CC3=O)ccc21 [Compound 72]
- herbicidal activity inhibition ratio (%), Setaria viridis (setaria viridis): 30%
- herbicidal activity inhibition ratio (%), Digitaria sanguinalis (digitaria sanguinalis): 20%
- herbicidal activity inhibition ratio (%), Amaranthus retroflexus (amaranthus retroflexus): 20%
- herbicidal activity inhibition ratio (%), Eclipta prostrata (eclipta prostrata): 60%
- herbicidal activity inhibition ratio (%), Echinochloa crusgalli (echinochloa crusgalli): 30%
- herbicidal activity inhibition ratio (%), Abutilon theophrasti (abutilon theophrasti): 100%

SMILES: CCCCn1c(=O)n(-c2ccccc2C)c(=O)c2cc(C(=O)C3=C(O)CCCC3=O)ccc21 [Compound 73]
- herbicidal activity inhibition ratio (%), Setaria viridis (setaria viridis): 10%
- herbicidal activity inhibition ratio (%), Digitaria sanguinalis (digitaria sanguinalis): 0%
- herbicidal activity inhibition ratio (%), Amaranthus retroflexus (amaranthus retroflexus): 30%
- herbicidal activity inhibition ratio (%), Eclipta prostrata (eclipta prostrata): 0%
- herbicidal activity inhibition ratio (%), Echinochloa crusgalli (echinochloa crusgalli): 0%
- herbicidal activity inhibition ratio (%), Abutilon theophrasti (abutilon theophrasti): 50%
